Measurements reported in PubChem BioAssay (NCI).
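Here, GI50 denotes the concentration required for 50% inhibition of growth. Definition used: TGI = concentration required for complete inhibition of growth.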

What was measured:
Assay in all cases: NCI-60 cell line screen, 384-well format
OVCAR-8 ovarian = tested on: OVCAR-8 ovarian
MDA-MB-435 melanoma = tested on: MDA-MB-435 melanoma
SF-268 CNS = tested on: SF-268 CNS
IGROV1 ovarian = tested on: IGROV1 ovarian
UACC-62 melanoma = tested on: UACC-62 melanoma
UO-31 renal = tested on: UO-31 renal
CCRF-CEM leukemia = tested on: CCRF-CEM leukemia
U251 glioblastoma = tested on: U251 glioblastoma
MALME-3M melanoma = tested on: MALME-3M melanoma
A498 renal = tested on: A498 renal
786-0 renal = tested on: 786-0 renal
SNB-75 CNS = tested on: SNB-75 CNS
HCT-15 colon = tested on: HCT-15 colon
RPMI-8226 leukemia = tested on: RPMI-8226 leukemia
HOP-62 NSCLC = tested on: HOP-62 NSCLC
HT29 colon = tested on: HT29 colon
HS 578T breast = tested on: HS 578T breast
SK-MEL-5 melanoma = tested on: SK-MEL-5 melanoma
OVCAR-4 ovarian = tested on: OVCAR-4 ovarian
RXF 393 renal = tested on: RXF 393 renal
M14 melanoma = tested on: M14 melanoma
CAKI-1 renal = tested on: CAKI-1 renal
T-47D breast = tested on: T-47D breast
SNB-19 CNS = tested on: SNB-19 CNS
MCF7 breast = tested on: MCF7 breast
COLO 205 colon = tested on: COLO 205 colon
MOLT-4 leukemia = tested on: MOLT-4 leukemia
SR leukemia = tested on: SR leukemia
HL-60(TB) leukemia = tested on: HL-60(TB) leukemia
KM12 colon = tested on: KM12 colon
SW-620 colon = tested on: SW-620 colon
DU-145 prostate = tested on: DU-145 prostate
UACC-257 melanoma = tested on: UACC-257 melanoma
NCI-H522 lung = tested on: NCI-H522 lung
NCI-H226 lung = tested on: NCI-H226 lung
EKVX NSCLC = tested on: EKVX NSCLC
NCI-H23 lung = tested on: NCI-H23 lung
NCI-H460 NSCLC = tested on: NCI-H460 NSCLC
TK-10 renal = tested on: TK-10 renal
NCI-H322M lung = tested on: NCI-H322M lung
BT-549 breast = tested on: BT-549 breast
HCT-116 colon = tested on: HCT-116 colon
PC-3 prostate = tested on: PC-3 prostate
SK-MEL-28 melanoma = tested on: SK-MEL-28 melanoma
A549 NSCLC = tested on: A549 NSCLC
SK-OV-3 ovarian = tested on: SK-OV-3 ovarian
SF-539 CNS = tested on: SF-539 CNS
SN12C renal = tested on: SN12C renal
LOX IMVI melanoma = tested on: LOX IMVI melanoma
MDA-MB-231 breast = tested on: MDA-MB-231 breast
OVCAR-5 ovarian = tested on: OVCAR-5 ovarian
OVCAR-3 ovarian = tested on: OVCAR-3 ovarian
SF-295 CNS = tested on: SF-295 CNS
MDA-MB-468 breast = tested on: MDA-MB-468 breast
ACHN renal = tested on: ACHN renal

Compound: COc1ccc2[nH]c3c(c2c1)CCN[C@]31CS[C@@H]2c3c(OC(C)=O)c(C)c4c(c3[C@H](COC1=O)N1[C@@H]2[C@H]2c3c(cc(C)c(OC)c3O)C[C@@H]([C@@H]1O)N2C)OCO4
- GI50 (OVCAR-8 ovarian): 0.126 nM
- TGI (OVCAR-8 ovarian): 0.487 nM
- GI50 (MDA-MB-435 melanoma): 0.594 nM
- TGI (MDA-MB-435 melanoma): 1.1 nM
- GI50 (SF-268 CNS): 0.0705 nM
- TGI (SF-268 CNS): 0.186 nM
- GI50 (IGROV1 ovarian): 0.416 nM
- TGI (IGROV1 ovarian): 7.86 nM
- GI50 (UACC-62 melanoma): 0.0874 nM
- TGI (UACC-62 melanoma): 0.31 nM
- GI50 (UO-31 renal): 1.68 nM
- TGI (UO-31 renal): 3.1 nM
- GI50 (CCRF-CEM leukemia): 0.0192 nM
- TGI (CCRF-CEM leukemia): 0.0348 nM
- GI50 (U251 glioblastoma): 0.112 nM
- TGI (U251 glioblastoma): 0.554 nM
- GI50 (MALME-3M melanoma): 0.0967 nM
- TGI (MALME-3M melanoma): 0.273 nM
- GI50 (A498 renal): 1.16 nM
- TGI (A498 renal): 2.96 nM
- GI50 (786-0 renal): 0.194 nM
- TGI (786-0 renal): 0.348 nM
- GI50 (SNB-75 CNS): 0.0809 nM
- TGI (SNB-75 CNS): 0.224 nM
- GI50 (HCT-15 colon): 0.414 nM
- TGI (HCT-15 colon): 1.06 nM
- GI50 (RPMI-8226 leukemia): 0.0579 nM
- TGI (RPMI-8226 leukemia): 0.108 nM
- GI50 (HOP-62 NSCLC): 0.0549 nM
- TGI (HOP-62 NSCLC): 0.115 nM
- GI50 (HT29 colon): 0.123 nM
- TGI (HT29 colon): 0.42 nM
- GI50 (HS 578T breast): 0.13 nM
- TGI (HS 578T breast): 0.372 nM
- GI50 (SK-MEL-5 melanoma): 0.0874 nM
- TGI (SK-MEL-5 melanoma): 0.243 nM
- GI50 (OVCAR-4 ovarian): 2.59 nM
- TGI (OVCAR-4 ovarian): 5.77 nM
- GI50 (RXF 393 renal): 0.0493 nM
- TGI (RXF 393 renal): 0.111 nM
- GI50 (M14 melanoma): 0.0827 nM
- TGI (M14 melanoma): 0.191 nM
- GI50 (CAKI-1 renal): 0.156 nM
- TGI (CAKI-1 renal): 6.95 nM
- GI50 (T-47D breast): 0.41 nM
- TGI (T-47D breast): 2.56 nM
- GI50 (SNB-19 CNS): 0.124 nM
- GI50 (MCF7 breast): 0.12 nM
- TGI (MCF7 breast): 5.95 nM
- GI50 (COLO 205 colon): 0.432 nM
- TGI (COLO 205 colon): 1.06 nM
- GI50 (MOLT-4 leukemia): 0.0141 nM
- TGI (MOLT-4 leukemia): 0.0474 nM
- GI50 (SR leukemia): 0.0186 nM
- TGI (SR leukemia): 0.0575 nM
- GI50 (HL-60(TB) leukemia): 0.0524 nM
- TGI (HL-60(TB) leukemia): 0.0982 nM
- GI50 (KM12 colon): 1.44 nM
- TGI (KM12 colon): 3.96 nM
- GI50 (SW-620 colon): 0.502 nM
- TGI (SW-620 colon): 6.77 nM
- GI50 (DU-145 prostate): 0.196 nM
- TGI (DU-145 prostate): 0.367 nM
- GI50 (UACC-257 melanoma): 0.428 nM
- TGI (UACC-257 melanoma): 0.848 nM
- GI50 (NCI-H522 lung): 0.0779 nM
- TGI (NCI-H522 lung): 0.261 nM
- GI50 (NCI-H226 lung): 0.109 nM
- TGI (NCI-H226 lung): 0.452 nM
- GI50 (EKVX NSCLC): 0.649 nM
- TGI (EKVX NSCLC): 1.49 nM
- GI50 (NCI-H23 lung): 0.0752 nM
- TGI (NCI-H23 lung): 0.194 nM
- GI50 (NCI-H460 NSCLC): 0.104 nM
- TGI (NCI-H460 NSCLC): 0.446 nM
- GI50 (TK-10 renal): 2.64 nM
- TGI (TK-10 renal): 7.17 nM
- GI50 (NCI-H322M lung): 0.522 nM
- TGI (NCI-H322M lung): 1.29 nM
- GI50 (BT-549 breast): 0.0503 nM
- TGI (BT-549 breast): 0.113 nM
- GI50 (HCT-116 colon): 0.16 nM
- GI50 (PC-3 prostate): 0.337 nM
- TGI (PC-3 prostate): 2.85 nM
- GI50 (SK-MEL-28 melanoma): 0.44 nM
- TGI (SK-MEL-28 melanoma): 0.877 nM
- GI50 (A549 NSCLC): 0.65 nM
- TGI (A549 NSCLC): 2.91 nM
- GI50 (SK-OV-3 ovarian): 0.181 nM
- TGI (SK-OV-3 ovarian): 9.81 nM
- GI50 (SF-539 CNS): 0.0587 nM
- TGI (SF-539 CNS): 0.111 nM
- GI50 (SN12C renal): 0.107 nM
- TGI (SN12C renal): 0.422 nM
- GI50 (LOX IMVI melanoma): 0.0682 nM
- TGI (LOX IMVI melanoma): 0.18 nM
- GI50 (MDA-MB-231 breast): 0.786 nM
- TGI (MDA-MB-231 breast): 2.42 nM
- GI50 (OVCAR-5 ovarian): 0.51 nM
- GI50 (OVCAR-3 ovarian): 0.189 nM
- TGI (OVCAR-3 ovarian): 0.863 nM
- GI50 (SF-295 CNS): 0.0573 nM
- TGI (SF-295 CNS): 0.115 nM
- GI50 (MDA-MB-468 breast): 0.0569 nM
- TGI (MDA-MB-468 breast): 0.119 nM
- GI50 (ACHN renal): 0.435 nM
- TGI (ACHN renal): 1.61 nM
